Earlier results, collected in paper PMC1403760 (BMC Pharmacology, 2006).

Test system: HEK cells
Set-up: method as in PMID 12238779
Settings: in these (HEK) cells; read-out: EC50 of forskolin

Structure (SMILES): C=C[C@@]1(C)CC(=O)[C@]2(O)[C@@]3(C)[C@@H](O)CCC(C)(C)[C@@H]3[C@H](O)[C@H](OC(C)=O)[C@@]2(C)O1 [forskolin]
- EC50: 10 µM
